Assay results: patent publication US7956190B2, “Benzimidazole amido derivatives as kinase inhibitors” (Hoffmann-La Roche Inc., priority 2007, dated 2011)

Test system: HCT 116 cells
Assay: CellTiter-Glo Assay in HCT 116 Cells
Assay type: cell-based
Details: HCT 116 human colon carcinoma cells, 5 days (120 h) incubation, CellTiter-Glo luminescence, tested in triplicate
Description: CellTiter-Glo™ Assay in HCT 116 Cells
The CellTiter-Glo™ Luminescent Cell Viability Assay (Promega) is a homogeneous method of determining the number of viable cells in culture based on quantitation of the ATP present, which signals the presence of metabolically active cells.
HCT 116 cells (human colon carcinoma, ATCC-No. CCl-247) were cultivated in RPMI 1640 medium with GlutaMAX™ I (Invitrogen, Cat-No. 61870-010), 5% Fetal Calf Serum (FCS, Sigma Cat-No. F4135 (FBS)); 100 Units/ml penicillin/100 μg/ml streptomycin (=Pen/Strep from Invitrogen Cat. No. 15140). For the assay the cells were seeded in 384 well plates, 1000 cells per well, in the same medium. The next day the test compounds were added in various concentrations ranging from 30 μM to 0.0015 μM (10 concentrations, 1:3 diluted). After 5 days the CellTiter-Glo™ assay was done according to the instructions of the manufacturer (CellTiter-Glo™ Luminescent Cell Viability Assay, from Promega). In brief: the cell-plate was equilibrated to room temperature for approximately 30 minutes and than the CellTiter-Glo™ reagent was added. The contents were carefully mixed for 15 minutes to induce cell lysis. After 45 minutes the luminescent signal was measured in Victor 2, (scanning multiwell spectrophotometer, Wallac).
• Medium: RPMI 1640 with GlutaMAX™ I (Invitrogen, Cat-Nr. 61870), 5% FCS (Sigma Cat.-No. F4135), Pen/Strep (Invitrogen, Cat No. 15140). • HCT116 (ATCC-No. CCl-247): 1000 cells in 60 μl per well of 384 well plate (Greiner 781098, μClear-plate white) • After seeding incubate plates 24 h at 37° C., 5% CO2 2nd. Day: Induction (Treatment with Compounds, 10 Concentrations):
In order to achieve a final concentration of 30 μM as highest concentration 3.5 μl of 10 mM compound stock solution were added directly to 163 μl media. Then step e) of the dilution procedure described below, was followed.

SMILES	IC50
N#Cc1cccc(C(=O)Nc2cccc3[nH]c(-c4c(NCc5ccccn5)cc[nH]c4=O)nc23)c1 [Example A-1, 3-Cyano-N-(2-[2-oxo-4-1 (pyridin-2-ylmethyl)-amino]-1,2-dihydro-pyridin-1H-benzoimidazol-4-yl)-benzamide]	1.36 µM
COc1ccc(C(=O)Nc2cccc3nc(-c4c(NCc5ccccc5)cc[nH]c4=O)[nH]c23)cc1 [Example A-3, N-[2-(4-Benzylamino-2-oxo-1,2-dihydro-pyridin-3-yl)-3H-benzoimidazol-4-yl]-4-methoxy-benzamide]	1 to 15 µM
O=C(Nc1cccc2nc(-c3c(NCc4ccccc4)cc[nH]c3=O)[nH]c12)c1ccccc1 [Example A-4, N-[2-(4-Benzylamino-2-oxo-1,2-dihydro-pyridin-3-yl)-3H-benzoimidazol-4-yl]-benzamide]	1 to 15 µM
O=C(Nc1cccc2nc(-c3c(NCc4ccccn4)cc[nH]c3=O)[nH]c12)c1ccccc1 [Example A-5, N-(2-{2-oxo-4-[(pyridin-2-ylmethyl)-amino]-1,2-dihydro-pyridin-3-yl}-3H-benzoimidazol-4-yl)-benzamide]	1 to 15 µM
COc1ccc(C(=O)Nc2cccc3nc(-c4c(NCc5ccccn5)cc[nH]c4=O)[nH]c23)cc1 [Example A-6, 4-Methoxy-N-(2-{2-oxo-4-[(pyridin-2-ylmethyl)-amino]-1,2-dihydro-pyridin-3-yl}-3H-benzoimidazol-4-yl)-benzamide]	1 to 15 µM
O=C(Nc1cccc2nc(-c3c(NCc4ccccn4)cc[nH]c3=O)[nH]c12)c1ccc(Cl)cc1 [Example A-7, 4-Chloro-N-(2-{2-oxo-4-[(pyridin-2-ylmethyl)-amino]-1,2-dihydro-pyridin-3-yl}-3H-benzoimidazol-4-yl)-benzamide]	1 to 15 µM
COc1ccc(C(=O)Nc2cccc3nc(-c4c(NCc5cccc(Cl)c5)cc[nH]c4=O)[nH]c23)cc1 [Example A-8, N-{2-[4-(3-Chloro-benzylamino)-2-oxo-1,2-dihydro-pyridin-3-yl]-3H-benzoimidazol-4-yl}-4-methoxy-benzamide]	1 to 15 µM
O=C(Nc1cccc2nc(-c3c(NCC(O)c4ccccc4)cc[nH]c3=O)[nH]c12)c1cccc(Cl)c1 (stereo not drawn) [Example A-11, 3-Chloro-N-[2-[4-(2-hydroxy-2-phenyl-ethylamino)-2-oxo-1,2-dihydro-pyridin-3-yl]-3H-benzoimidazol-4-yl]-benzamide]	1 to 15 µM
O=C(Nc1cccc2nc(-c3c(NC[C@@H](O)c4ccccc4)cc[nH]c3=O)[nH]c12)c1ccc(F)cc1 [Example A-12, 4-Fluoro-N-{2-[4-((S)-2-hydroxy-2-phenyl-ethylamino)-2-oxo-1,2-dihydro-pyridin-3-yl]-3H-benzoimidazol-4-yl}-benzamide]	1 to 15 µM
O=C(Nc1cccc2nc(-c3c(NC[C@@H](O)c4ccccc4)cc[nH]c3=O)[nH]c12)c1ccc(C(F)(F)F)cc1 [Example A-15, N-{2-[4-((S)-2-Hydroxy-2-phenyl-ethylamino)-2-oxo-1,2-dihydro-pyridin-3-yl]-3H-benzoimidazol-4-yl}-4-trifluoromethyl-benzamide]	1 to 15 µM
COc1ccccc1C(=O)Nc1cccc2nc(-c3c(NCc4ccccc4)cc[nH]c3=O)[nH]c12 [Example A-16, N-[2-(4-Benzylamino-2-oxo-1,2-dihydro-pyridin-3-yl)-3H-benzoimidazol-4-yl]-2-methoxy-benzamide]	1 to 15 µM
O=C(Nc1cccc2nc(-c3c(NCc4ccccc4)cc[nH]c3=O)[nH]c12)c1ccccc1Cl [Example A-17, N-[2-(4-Benzylamino-2-oxo-1,2-dihydro-pyridin-3-yl)-3H-benzoimidazol-4-yl]-2-chloro-benzamide]	1 to 15 µM
O=C(Nc1cccc2nc(-c3c(NCc4ccccc4)cc[nH]c3=O)[nH]c12)c1ccc(Cl)cc1 [Example A-18, N-[2-(4-Benzylamino-2-oxo-1,2-dihydro-pyridin-3-yl)-3H-benzoimidazol-4-yl]-4-chloro-benzamide]	1 to 15 µM
O=C(Cc1ccccc1)Nc1cccc2nc(-c3c(NC[C@@H](O)c4ccccc4)cc[nH]c3=O)[nH]c12 [Example B-1, N-{2-[4-((S)-2-Hydroxy-2-phenyl-ethylamino)-2-oxo-1,2-dihydro-pyridin-3-yl]-3H-benzoimidazol-4-yl}-2-phenyl-acetamide]	1 to 15 µM
O=C(Nc1cccc2nc(-c3c(NCc4cccc(Cl)c4)cc[nH]c3=O)[nH]c12)c1ccccc1 [Example B-2, N-{2-[4-(3-Chloro-benzylamino)-2-oxo-1,2-dihydro-pyridin-3-yl]-3H-benzoimidazol-4-yl}-benzamide]	1 to 15 µM
CC(C)(C)C(=O)Nc1cccc2nc(-c3c(NC[C@@H](O)c4ccccc4)cc[nH]c3=O)[nH]c12 [Example B-3, N-{2-[4-((S)-2-Hydroxy-2-phenyl-ethylamino)-2-oxo-1,2-dihydro-pyridin-3-yl]-3H-benzoimidazol-4-yl}-2,2-dimethyl-propionamide]	1 to 15 µM
O=C(Nc1cccc2nc(-c3c(NC[C@@H](O)c4ccccc4)cc[nH]c3=O)[nH]c12)c1cccc(C(F)(F)F)c1 [Example B-5, N-{2-[4-((S)-2-Hydroxy-2-phenyl-ethylamino)-2-oxo-1,2-dihydro-pyridin-3-yl]-3H-benzoimidazol-4-yl}-3-trifluoromethyl-benzamide]	1 to 15 µM
O=C(COc1ccccc1)Nc1cccc2nc(-c3c(NC[C@@H](O)c4ccccc4)cc[nH]c3=O)[nH]c12 [Example B-6, N-{2-[4-((S)-2-Hydroxy-2-phenyl-ethylamino)-2-oxo-1,2-dihydro-pyridin-3-yl]-3H-benzoimidazol-4-yl}-2-phenoxy-acetamide]	1 to 15 µM
O=C(Nc1cccc2nc(-c3c(NC[C@@H](O)c4ccccc4)cc[nH]c3=O)[nH]c12)C1CC1 [Example B-8, Cyclopropanecarboxylic acid {2-[4-((S)-2-hydroxy-2-phenyl-ethylamino)-2-oxo-1,2-dihydro-pyridin-3-yl]-3H-benzoimidazol-4-yl}-amide]	1 to 15 µM
O=C(Nc1cccc2nc(-c3c(NC[C@@H](O)c4ccccc4)cc[nH]c3=O)[nH]c12)c1ccccc1F [Example B-9, 2-Fluoro-N-{2-[4-((S)-2-hydroxy-2-phenyl-ethylamino)-2-oxo-1,2-dihydro-pyridin-3-yl]-3H-benzoimidazol-4-yl}-benzamide]	1 to 15 µM
O=C(Nc1cccc2nc(-c3c(NCC(O)c4ccccc4)cc[nH]c3=O)[nH]c12)c1ccccc1Cl (stereo not drawn) [Example B-10, 2-Chloro-N-{2-[4-(2-hydroxy-2-phenyl-ethylamino)-2-oxo-1,2-dihydro-pyridin-3-yl]-3H-benzoimidazol-4-yl}-benzamide]	1 to 15 µM
O=C(COc1ccc(Cl)cc1)Nc1cccc2nc(-c3c(NC[C@@H](O)c4ccccc4)cc[nH]c3=O)[nH]c12 [Example B-11, 2-(4-Chloro-phenoxy)-N-{2-[4-((S)-2-hydroxy-2-phenyl-ethylamino)-2-oxo-1,2-dihydro-pyridin-3-yl]-3H-benzoimidazol-4-yl}-acetamide]	1 to 15 µM
N#Cc1cccc(C(=O)Nc2cccc3nc(-c4c(NC[C@@H](O)c5ccccc5)cc[nH]c4=O)[nH]c23)c1 [Example B-12, 3-Cyano-N-{2-[4-((S)-2-hydroxy-2-phenyl-ethylamino)-2-oxo-1,2-dihydro-pyridin-3-yl]-3H-benzoimidazol-4-yl}-benzamide]	1 to 15 µM
COCC(=O)Nc1cccc2nc(-c3c(NC[C@@H](O)c4ccccc4)cc[nH]c3=O)[nH]c12 [Example B-13, N-{2-[4-((S)-2-Hydroxy-2-phenyl-ethylamino)-2-oxo-1,2-dihydro-pyridin-3-yl]-3H-benzoimidazol-4-yl}-2-methoxy-acetamide]	1 to 15 µM
O=C(Nc1cccc2nc(-c3c(NC[C@@H](O)c4ccccc4)cc[nH]c3=O)[nH]c12)c1cccc(F)c1 [Example B-15, 3-Fluoro-N-{2-[4-((S)-2-hydroxy-2-phenyl-ethylamino)-2-oxo-1,2-dihydro-pyridin-3-yl]-3H-benzoimidazol-4-yl}-benzamide]	6.92 µM
O=C(Nc1cccc2nc(-c3c(NC[C@@H](O)c4ccccc4)cc[nH]c3=O)[nH]c12)c1ccc(Cl)cc1Cl [Example B-16, 2,4-Dichloro-N-{2-[4-((S)-2-hydroxy-2-phenyl-ethylamino)-2-oxo-1,2-dihydro-pyridin-3-yl}-3H-benzoimidazol-4-yl]-benzamide]	1 to 15 µM
COc1cccc(C(=O)Nc2cccc3nc(-c4c(NC[C@@H](O)c5ccccc5)cc[nH]c4=O)[nH]c23)c1 [Example B-18, N-{2-[4-((S)-2-Hydroxy-2-phenyl-ethylamino)-2-oxo-1,2-dihydro-pyridin-3-yl]-3H-benzoimidazol-4-yl}-3-methoxy-benzamide]	1 to 15 µM
